Structures can show the parent of a compound that is named as a salt.
What was measured:
SB.msgc-1 [1] = assay: area under the dose-response curve of % viability (trapezoidal, 11 doses) (% viability x log10 concentration); higher = less cytotoxic; details: SB.msgc-1 (sporadic gastric cancer)
Method in brief: (§1)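 Patient-derived gastric cancer cells, hereditary or sporadic, were plated at 500 cells in 5 μL medium per well of a 1536-well plate and given 23 nL of compound in DMSO by pintool across 11 threefold dilutions. The top concentration was recorded for each compound. After 48 h, CellTiter-Glo was added for 30 min at room temperature and luminescence was read on a ViewLux. Values are viability normalised to DMSO, taken either at the highest concentration or as trapezoidal area under the curve.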

SB.mhdgc-1 [2] = assay: as above; details: SB.mhdgc-1 (hereditary c.1380delA CDH1 gastric cancer)
Method in brief: as §1

SB.msgc-1 [3] = assay: viability at highest tested concentration (MAXR) relative to DMSO; higher = less cytotoxic; details: SB.msgc-1 (sporadic gastric cancer)
Method in brief: as §1

SB.mhdgc-1 [4] = assay: as above; details: SB.mhdgc-1 (hereditary c.1380delA CDH1 gastric cancer)
Method in brief: as §1

| Structure (SMILES) | area under the dose-response curve (SB.msgc-1 [1]) | area under the dose-response curve (SB.mhdgc-1 [2]) | viability (SB.msgc-1 [3]) [%] | viability (SB.mhdgc-1 [4]) [%] |
| --- | --- | --- | --- | --- |
| Cc1cnc(-c2cc(N3CCN(C(=O)CC[S+](C)(=O)[O-])CC3)ncc2Cl)c(C)c1 (top concentration 46.0829 µM) | 516 | 447 | 92.6 | 58.1 |
| N[S+]([O-])(=O)C1=C(Cl)C=C2\N=C/N[S+]([O-])(=O)C2=C1 [Chlorothiazide] (top concentration 46.0829 µM) | 519 | 512 | 106 | 114 |
| C/C=C(\C)C(=O)N[C@@H](c1ccccc1)[C@@H](O)C(=O)O[C@H]1C[C@@]2(O)[C@@H](OC(=O)c3ccccc3)[C@@H]3[C@]4(OC(C)=O)CO[C@@H]4C[C@H](O)[C@@]3(C)C(=O)[C@H](OC(C)=O)C(=C1C)C2(C)C [Cephalomannine] (top concentration 46.0829 µM) | 190 | 207 | 38.1 | 42.5 |
| CN1CCCN(C(=O)c2cccc(-c3ccc(/C=C4/C(=O)Nc5ccc(Cl)cc54)o3)c2)CC1 [CX-6258] (top concentration 46.0829 µM) | 471 | 490 | 1.28 | 2.37 |
| CC(N[C@H]1CCCC[C@@H]1NC(=O)c1ccc(Cl)cc1)c1cccc2ccccc12 (stereo partly specified) [Calhex 231] (top concentration 46.0829 µM) | 434 | 377 | 42.8 | 36 |
| CC(=O)OCCN1C(=O)c2c(C)nc3ccc([S+](=O)([O-])N4CCOCC4)cc3c2C1=O [Ivachtin] (top concentration 46.0829 µM) | 541 | 504 | 120 | 102 |
| O=C(Nc1nc2ccccc2n1CCN1CCOCC1)c1cccc([N+](=O)[O-])c1 (top concentration 46.0829 µM) | 476 | 441 | 32.7 | 2.91 |
| O=C(NCC1CCOCC1)c1cnc(Nc2ccc(Cl)cc2Cl)nc1C(F)(F)F (top concentration 46.0829 µM) | 539 | 519 | 6.36 | 7.1 |
| CN(C)CCc1ccc(O)cc1 [Hordenine] (top concentration 46.0829 µM) | 527 | 433 | 88.4 | 87.9 |
| CN(CC#C)C/C1=C/C2=CC=CC=C2OC3=CC=CC=C13 [Omigapil] (top concentration 46.0829 µM) | 476 | 481 | 60.7 | 78.2 |
| CN1C2=CC(=O)/C(=N/NC(N)=O)C=C2CC1S(=O)(=O)[O-].[Na+] (stereo unspecified) [Carbazochrome sodium sulfonate] (top concentration 46.0829 µM) | 552 | 576 | 120 | 133 |
| O=C1[O][Pt]2([NH]C3CCCCC3[NH]2)[O]C1=O (stereo unspecified) [Oxaliplatin] (top concentration 46.0829 µM) | 463 | 451 | 57.1 | 21.6 |
| CCCCc1oc2ccccc2c1C(=O)c1cc(I)c(OCCN(CC)CC)c(I)c1 [Amiodarone] (top concentration 46.0829 µM) | 446 | 462 | 26.2 | 17.4 |
| NC(=O)NO [Hydroxyurea] (top concentration 46.0829 µM) | 348 | 409 | 42.4 | 55.3 |
| COc1cc(Nc2ncc(F)c(Nc3ccc4c(n3)N(COP(=O)(O)O)C(=O)C(C)(C)O4)n2)cc(OC)c1OC [Fostamatinib disodium] (top concentration 46.0829 µM) | 411 | 408 | 31 | 6.16 |
| Oc1ccc2c3c1O[C@H]1c4[nH]c5c(c4C[C@@]4(O)[C@@H](C2)N(CC2CC2)CC[C@]314)C[C@@]1(O)[C@H]2Cc3ccc(O)c4c3[C@@]1(CCN2CC1CC1)[C@H]5O4 [nor-Binaltorphimine] (top concentration 46.0829 µM) | 548 | 567 | 118 | 130 |
| C[C@H](CCC(=O)O)[C@H]1CC[C@H]2[C@@H]3[C@H](O)C[C@@H]4C[C@H](O)CC[C@]4(C)[C@H]3CC[C@]12C [Chenodeoxycholic acid] (top concentration 46.0829 µM) | 381 | 478 | 85.4 | 121 |

| Structure (SMILES) | area under the dose-response curve (SB.msgc-1 [1]) | area under the dose-response curve (SB.mhdgc-1 [2]) | viability (SB.msgc-1 [3]) [%] | viability (SB.mhdgc-1 [4]) [%] |
| --- | --- | --- | --- | --- |
| C[C@H](NC(=O)C(=O)Nc1ccccc1C(C)(C)C)C(=O)N[C@@H](CC(=O)O)C(=O)COc1c(F)c(F)cc(F)c1F [Emricasan] (top concentration 46.0829 µM) | 574 | 537 | 84.6 | 105 |
| C=C(C)[C@@H]1CC[C@]2(C)CC[C@]3(C)[C@H](CC[C@@H]4[C@@]5(C)CC[C@H](O)C(C)(C)[C@@H]5CC[C@]43C)[C@@H]12 [Lupeol] (top concentration 46.0829 µM) | 522 | 609 | 108 | 134 |
| CC/C(=C(\c1ccccc1)c1ccc(OCCN(C)C)cc1)c1ccccc1 [Tamoxifen] (top concentration 46.0829 µM) | 475 | 522 | 57.5 | 23.9 |
| CC(=O)O/N=C1/C(=C2\C(=O)Nc3cc(Br)ccc32)Nc2ccccc21 [6-Bromoindirubin-3'-acetoxime] (top concentration 46.0829 µM) | 426 | 418 | 0.124 | 0.814 |
| CN(C)CCCN1c2ccccc2CCc2ccc(Cl)cc21 [Clomipramine hydrochloride] (top concentration 46.0829 µM) | 415 | 357 | 19.4 | 10.3 |
| CCCCCNC(=O)N1CCC(CN(Cc2ccc(Cl)cc2)Cc2ccc([N+](=O)[O-])s2)C1 (stereo unspecified) [SR9011] (top concentration 46.0829 µM) | 486 | 518 | 39 | 16.7 |
| CNC(=O)c1ccc(-c2cnc3ncc(Cc4ccc5ncccc5c4)n3n2)cc1F (top concentration 46.0829 µM) | 479 | 521 | 81.2 | 72.6 |
| CCNC(=O)[C@H]1O[C@@H](n2cnc3c(N)nc(NCCc4ccc(CCC(=O)O)cc4)nc32)[C@H](O)[C@@H]1O (top concentration 46.0829 µM) | 454 | 548 | 76.4 | 114 |
| CNC(=O)Nc1ccc(-c2nc(N3CC4CCC(C3)O4)c3cnn(C4CCC5(CC4)OCCO5)c3n2)cc1 (top concentration 46.0829 µM) | 388 | 268 | 40.1 | 3.97 |
| N[C@@H](C(=O)N[C@H]1[C@H]2SC\C(=C(/N2C1=O)C(O)=O)Cl)C3=CC=CC=C3 [Cefaclor] (top concentration 46.0829 µM) | 545 | 430 | 112 | 169 |
| CNC(=O)c1ccc2c(c1)NC(=O)/C2=C(\Nc1cccc(CN(C)C)c1)c1ccccc1 (top concentration 46.0829 µM) | 518 | 413 | 64.9 | 41.1 |
| COc1ccc2cc1Oc1ccc(cc1)C[C@H]1c3cc(c(OC)cc3CCN1C)Oc1c(OC)c(OC)cc3c1[C@H](C2)N(C)CC3 [Tetrandrine] (top concentration 46.0829 µM) | 507 | 538 | 48.5 | 57.7 |
| COc1ccc(COc2cc3oc(=O)c4cc(C(C)O)ccc4c3cc2OC)cc1 (stereo unspecified) (top concentration 46.0829 µM) | 507 | 486 | 36.2 | 39.9 |
| CC(C)N[C@@H]1CCn2c(=O)[nH]c3cccc(c32)[C@H]1O [Zilpaterol] (top concentration 46.0829 µM) | 446 | 402 | 19.2 | 11.1 |
| Nc1nc(Nc2ccc([S+](N)(=O)[O-])cc2)nn1C(=O)c1c(F)cccc1F (top concentration 46.0829 µM) | 433 | 459 | 49.1 | 63.7 |
| Nc1ccc(C(=O)c2cc3c(ccc4ccccc43)[nH]2)cc1 [IPFK2] (top concentration 46.0829 µM) | 431 | 506 | 27.4 | 16.9 |
| C=CCNc1c(O)cc2c(O)c1C[C@@H](C)C[C@H](OC)[C@H](O)[C@@H](C)/C=C(/C)[C@H](OC(N)=O)[C@@H](OC)/C=C\C=C(\C)C(=O)N2 [Retaspimycin] (top concentration 46.0829 µM) | 312 | 384 | 35.9 | 7.51 |
